The target in the experiment is T1, Human complement C1s enzyme (Homo sapiens, UniProt P09871).
T1 construct: purified from human serum, Complement Technology, Inc; purchased Complement Technology, Inc; host or cells: human serum (plasma-derived native protein)
T1 sequence (P09871 438-688 limits assumed): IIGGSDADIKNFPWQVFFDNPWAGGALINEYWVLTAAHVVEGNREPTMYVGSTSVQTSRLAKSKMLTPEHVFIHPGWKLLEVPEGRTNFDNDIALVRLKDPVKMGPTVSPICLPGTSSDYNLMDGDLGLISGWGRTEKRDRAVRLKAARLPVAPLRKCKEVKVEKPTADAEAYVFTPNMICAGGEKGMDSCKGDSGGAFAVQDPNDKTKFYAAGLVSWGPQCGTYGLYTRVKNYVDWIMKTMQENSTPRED
T1 sequence (P09871 16-437 partner limits assumed): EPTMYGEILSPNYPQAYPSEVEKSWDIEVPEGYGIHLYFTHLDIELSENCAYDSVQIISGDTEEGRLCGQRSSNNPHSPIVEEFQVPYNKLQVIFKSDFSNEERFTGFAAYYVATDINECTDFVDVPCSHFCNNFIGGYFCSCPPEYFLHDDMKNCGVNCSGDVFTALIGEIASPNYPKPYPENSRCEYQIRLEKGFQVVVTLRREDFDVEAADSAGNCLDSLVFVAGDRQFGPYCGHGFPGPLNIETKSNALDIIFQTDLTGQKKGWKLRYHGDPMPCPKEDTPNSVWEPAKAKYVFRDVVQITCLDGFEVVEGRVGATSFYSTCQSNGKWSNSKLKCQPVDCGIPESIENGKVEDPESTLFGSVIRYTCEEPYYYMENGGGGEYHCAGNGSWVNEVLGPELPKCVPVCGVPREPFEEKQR
The experiment in a line: Human C1s enzyme assay. Format: biochemical. As to conditions: human complement C1s enzyme 1.16 nM, substrate Z-L-Lys-SBzl, A405; read-out: IC50 (Stars). In outline:
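Serum-purified human C1s (1.16 nM final) preincubated 5 min at room temperature with compound in 50 mM Tris, 1 M NaCl, pH 7.5. Z-L-Lys-SBzl and DTNB added at 100 μM each; A405 recorded every 30 s. IC50 from nonlinear regression of reaction rates versus compound concentration.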

Consider `COc1c(NC(=O)c2ccc(-c3ccccc3)s2)ccc(-c2ccccc2)c1CC(=O)NCc1cc2cnccc2[nH]1` [Compound 129, N-(2-(2-(((1H-Pyrrolo[3,2-c]pyridine-2-yl)methyl)amino)-2-oxoethyl)-3-methoxy-[1,1′-biphenyl]-4-yl)-5-phenylthiophene-2-carboxamide], for which the IC50 (usually the point on the concentration scale where inhibition reaches its midpoint) is over 1000 nM.

Turning to `O=C(Cn1c(-c2ccc(OC3COC3)cc2)ncc(NCc2ccc3oc4ccccc4c3c2)c1=O)NCc1cc2cnccc2[nH]1` [Compound 130, N-((1H-pyrrolo[3,2-c]pyridine-2-yl)methyl)-2-(5-((dibenzo[b,d]furan-2-ylmethyl)amino)-2-(4-(oxetan-3-yloxy)phenyl)-6-oxopyrimidin-1(6H)-yl)acetamide], the IC50 was under 100 nM.

Take `CS(=O)(=O)c1ccc(-c2ncc(NCc3ccc4oc5ccccc5c4c3)c(=O)n2CC(=O)NCc2cc3cnccc3[nH]2)cc1` [Compound 134, N-((1H-pyrrolo[3,2-c]pyridin-2-yl)methyl)-2-(5-((dibenzo [b,d]furan-2-ylmethyl)amino)-2-(4-(methylsulfonyl)phenyl)-6-oxopyrimidin-1(6H)-yl)-acetamide]: the IC50 was under 100 nM.

With `O=C(Cn1c(-c2ccc(C(F)(F)F)cc2)ncc(NCc2ccc3oc4ccccc4c3c2)c1=O)NCc1cc2cnccc2[nH]1` [Compound 135, N-((1H-pyrrolo[3,2-c]pyridin-2-yl)methyl)-2-(5-((dibenzo [b,d]furan-2-ylmethyl)amino)-6-oxo-2-(4-(trifluoromethyl)-phenyl)pyrimidin-1(6H)-yl)-acetamide], the IC50 was under 100 nM.

For `O=C(Cn1c(-c2ccc(OC(F)(F)F)cc2)ncc(NCc2ccc3oc4ccccc4c3c2)c1=O)NCc1cc2cnccc2[nH]1` [Compound 136, N-((1H-pyrrolo[3,2-c]pyridin-2-yl)methyl)-2-(5-((dibenzo [b,d]furan-2-ylmethyl)amino)-6-oxo-2-(4-(trifluoromethoxy)-phenyl)pyrimidin-1(6H)-yl)-acetamide], the IC50 is under 100 nM.

As for `O=C(Cn1c(-c2ccc(OC3COC3)cc2)ncc(NCc2ccc3c(c2)-c2ccccc2C3(F)F)c1=O)NCc1cc2cnccc2[nH]1` [Compound 138, N-((1H-pyrrolo[3,2-c]pyridin-2-yl)methyl)-2-(5-(((9,9-difluoro-9H-fluoren-3-yl)meth-yl)amino)-2-(4-(oxetan-3-yl-oxy)phenyl)-6-oxopyrimidin-1(6H)-yl)acetamide], the IC50 is under 100 nM.

Consider `O=C(Cn1c(-c2ccccc2)ncc(NCc2ccc3oc4ccccc4c3c2)c1=O)NCc1cc2cnccc2s1` [Compound 141, 2-(5-((Dibenzo[b,d]furan-2-ylmethyl)amino)-6-oxo-2-phenylpyrimidin-1(6H)-yl)-N-(thieno[3,2-c]pyridin-2-ylmethyl)acetamide], for which the IC50 was under 100 nM.

Take `O=C(Cn1c(-c2ccccc2)ncc(NCc2ccc3oc4ccccc4c3c2)c1=O)NCc1cc2c(s1)CCNC2` [Compound 142, 2-(5-((dibenzo[b,d]furan-2-ylmethyl)amino)-6-oxo-2-phenylpyrimidin-1(6H)-yl)-N-((4,5,6,7-tetrahydrothieno[3,2-c]pyridine-2-yl)methyl)acetamide]: the IC50 is under 100 nM.

As for `O=C(Cn1c(-c2ccccc2)ncc(NCc2ccc3oc4ccccc4c3c2)c1=O)NCc1cc2c(s1)CNCC2` [Compound 143, 2-(5-((dibenzo[b,d]furan-2-yl-methyl)amino)-6-oxo-2-phen-ylpyrimidin-1(6H)-yl)-N-((4,5,6,7-tetrahydrothieno [2,3-c]pyridin-2-yl)methyl)-acetamide], the IC50 is under 100 nM.

For `O=C(Cn1c(-c2ccccc2)ncc(NCc2ccc3oc4ccccc4c3c2)c1=O)NCc1cc2cnccn2c1` [Compound 144, 2-(5-((dibenzo[b,d]furan-2-ylmethyl)amino)-6-oxo-2-phenylpyrimidin-1(6H)-yl)-N-(pyrrolo[1,2-a]pyrazin-7-ylmethyl)acetamide], the half-maximal inhibitory concentration (IC50) was over 1000 nM.

The values above are taken from patent publication US20260184707A1, “PHARMACEUTICAL COMPOUNDS FOR THE TREATMENT OF COMPLEMENT MEDIATED DISORDERS” (ALEXION PHARMACEUTICALS, INC., priority 2022, published 2026).
